Data published in ChEMBL document CHEMBL1201862, “PubChem BioAssay data set” (2004).
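Tested at 5 concentrations; 48 h exposure; 96-well plates; endpoints linearly interpolated, else capped at highest concentration. GI50 marks 50% less growth.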 Activity calls are given as the source filed them. Rule as the data show it: active = GI50 up to about 1.1 µM and inactive = higher.

Tests used:
Experiment in all cases: NCI tumour cell line growth inhibition, 48 h
[1] = test system: SF-295
[2] = test system: DLD-1
[3] = test system: XF498
[4] = test system: SF-268
[5] = test system: UO-31
[6] = test system: LOX IMVI
[7] = test system: MOLT-4
[8] = test system: HCT-116
[9] = test system: NCI-H522
[10] = test system: U-251
[11] = test system: A549
[12] = test system: LXFL 529
[13] = test system: KM12
[14] = test system: HT-29
[15] = test system: NCI-H23
[16] = test system: SF-539
[17] = test system: SK-MEL-5
[18] = test system: SW-620
[19] = test system: NCI-H460
[20] = test system: DMS-273
[21] = test system: SK-OV-3
[22] = test system: SNB-19
[23] = test system: K562
[24] = test system: SNB-75
[25] = test system: COLO 205
[26] = test system: ACHN
[27] = test system: SK-MEL-28
[28] = test system: RXF 393
[29] = test system: UACC-62
[30] = test system: M14
[31] = test system: HCT-15
[32] = test system: EKVX
[33] = test system: CAKI-1
[34] = test system: OVCAR-4
[35] = test system: RPMI-8226
[36] = test system: Malme-3M
[37] = test system: HL-60
[38] = test system: HOP-18
[39] = test system: HCC 2998
[40] = test system: IGROV-1
[41] = test system: SN12C
[42] = test system: OVCAR-5
[43] = test system: TK-10
[44] = test system: CCRF-CEM
[45] = test system: DMS-114
[46] = test system: HOP-62
[47] = test system: UACC-257
[48] = test system: 786-0
[49] = test system: A498
[50] = test system: SK-MEL-2
[51] = test system: KM-20L2
[52] = test system: OVCAR-8
[53] = test system: NCI-H226
[54] = test system: SNB-78
[55] = test system: M19-MEL

Measured: GI50

COC(=O)/C=C(\C)CCC1SC1(C)C (stereo not given)
> 100 µM: [31]
inactive: [1] > 100 µM | [2] > 100 µM | [3] > 100 µM | [4] > 100 µM | [5] > 100 µM | [6] > 100 µM | [7] > 100 µM | [8] > 100 µM | [9] > 100 µM | [10] > 100 µM | [11] > 100 µM | [12] > 100 µM | [13] > 100 µM | [14] > 100 µM | [15] > 100 µM | [16] > 100 µM | [17] > 100 µM | [18] 77.3 µM | [19] > 100 µM | [20] > 100 µM | [21] > 100 µM | [22] > 100 µM | [23] > 100 µM | [24] > 100 µM | [25] > 100 µM | [26] > 100 µM | [27] > 100 µM | [28] > 100 µM | [29] > 100 µM | [30] > 100 µM | [32] > 100 µM | [33] > 100 µM | [34] > 100 µM | [35] > 100 µM | [36] > 100 µM | [37] > 100 µM | [38] > 100 µM | [39] > 100 µM | [40] > 100 µM | [41] > 100 µM | [42] > 100 µM | [43] > 100 µM | [44] > 100 µM | [45] 91.8 µM | [46] > 100 µM | [47] > 100 µM | [48] > 100 µM | [49] > 100 µM | [50] > 100 µM | [51] > 100 µM | [52] > 100 µM | [53] > 100 µM | [54] > 100 µM | [55] > 100 µM
